According to US20220227745A1, “Compounds For Modulating FXR” (NANJING RUIJIE PHARMA TECH CO., LTD., priority 2019, published 2022):

Molecular target: T1, FXR LBD, GST (Homo sapiens, UniProt Q96RI1)
T1 construct: FXR LBD, GST; purchased Invitrogen PV4834
T1 sequence (Q96RI1 262-486 limits assumed): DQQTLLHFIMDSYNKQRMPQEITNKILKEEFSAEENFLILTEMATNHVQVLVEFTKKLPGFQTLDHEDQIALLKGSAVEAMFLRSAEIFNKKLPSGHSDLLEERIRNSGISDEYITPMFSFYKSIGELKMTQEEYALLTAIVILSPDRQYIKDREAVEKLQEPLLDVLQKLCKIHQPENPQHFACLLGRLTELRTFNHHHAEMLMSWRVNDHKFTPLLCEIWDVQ
Assay: FXR Binding Assay (TR-FRET, Fluorescein-SRC2-2 coactivator peptide)
Settings: for Emax: % Activity relative to positive control, read-out: Pct Effect (Emax %); for EC50: TR-FRET FXR LBD coactivator recruitment
Procedure: The interaction between the present compounds and FXR are evaluated by Time-Resolved Fluorescence Resonance Energy Transfer (TR-FRET) competition assay. FRET describes a radiation-free energy transfer between two chromophores: a donor fluorophore in its excited state can transfer energy to an acceptor fluorophore in close proximity (typically <10 nm). In contrast to standard FRET, TR-FRET unites time-resolved fluorescence (TRF) and the FRET principle, TRF use a long-lifetime lanthanide chelate as the donor species, while lanthanide chelates are unique in that their excited-state lifetime can be on the order of a millisecond or longer. Suitable neighbors for FRET are known in the art and can be obtained.
The assay was performed in following steps: first, prepared a) 1 mM compounds (100×) in DMSO; b) reaction buffer containing 1× buffer G with 10 mM DTT; c) 4×FXR LBD (20 nM) in 1× chilled buffer G. Second, performed 3-fold serial dilution of 1 mM test compounds using DMSO from 1 mM, 10 doses in a 96-well plate (249944, Nunc). Then, used complete buffer G to dilute each 100× compounds serial dilution to 2×. Third, added 10 μl 2× compound serial dilution into 384-well plate (3677, Corning). Then, added 5 μl FXR LBD into the assay plate. Prepared a solution containing 2 μM fluorescein-SRC2-2 (4×) and 20 nM Tb anti-GST antibody (4×) in buffer G at room temperature and started the reaction by adding 5 μl the above solution into each well of the assay plate. Centrifuged the assay plates at 1000 g for 1 min and then incubated at room temperature for lhr protected from light. Finally, the plate was read at wavelengths of 520 nm and 495 nm on Envision 2104 plate reader (PerkinElmer).
A ratio (Ratio520 nm/495 nm−Ratiobackground) was calculated for each well. The activity ratio was calculated as follow: […]
Ratiopositive: The average ratio for the positive control across the plate.
Ratiovehicle: The average ratio for negative controls across the plate.
EC50 was calculated by fitting % Activity values and log of compound concentrations to nonlinear regression (dose response-variable slope) with GraphPad 5.0.
X: log of compound concentration.

Row | Compound | Emax | EC50
1 | CC1CN(c2ccc3nc(C(=O)O)ccc3c2)CCN1CCc1c(-c2c(Cl)cccc2Cl)noc1C1CC1 (stereo not drawn) [Example I52, 6-(4-(2-(5-cyclopropyl-3-(2,6-dichlorophenyl)isoxazol-4-yl)ethyl)-3-methylpiperazin-1-yl)quinoline-2-carboxylic Acid] | 121% | 0.209 µM
2 | COC(=O)c1ccc2cc(N3CCN(CCc4c(-c5c(Cl)cccc5Cl)noc4C4CC4)C(C)C3)ccc2n1 (stereo not drawn) [Example I53, methyl 6-(4-(2-(5-cyclopropyl-3-(2,6-dichlorophenyl)isoxazol-4-yl)ethyl)-3-methylpiperazin-1-yl)quinoline-2-carboxylate] | 68.4% | 0.436 µM
3 | CC1CCN(c2ccc3c(C(=O)O)cn(C)c3c2)CCN1CCc1c(-c2c(Cl)cccc2Cl)noc1C1CC1 (stereo not drawn) [Example I55, 6-(4-(2-(5-cyclopropyl-3-(2,6-dichlorophenyl)isoxazol-4-yl)ethyl)-5-methyl-1,4-diazepan-1-yl)-1-methyl-1H-indole-3-carboxylic Acid] | 70.9% | 2.77 µM
4 | COC(=O)c1cn(C)c2cc(N3CCC(C)N(CCc4c(-c5c(Cl)cccc5Cl)noc4C4CC4)CC3)ccc12 (stereo not drawn) [Example I56, methyl 6-(4-(2-(5-cyclopropyl-3-(2,6-dichlorophenyl)isoxazol-4-yl)ethyl)-5-methyl-1,4-diazepan-1-yl)-1-methyl-1H-indole-3-carboxylate] |  | > 10 µM
5 | CC1CC(c2ccc3c(C(=O)O)cn(C)c3c2)CCN1CCc1c(-c2c(Cl)cccc2Cl)noc1C1CC1 (stereo not drawn) [Example I57, 6-(1-(2-(5-cyclopropyl-3-(2,6-dichlorophenyl)isoxazol-4-yl)ethyl)-2-methylpiperidin-4-yl)-1-methyl-1H-indole-3-carboxylic Acid] | 180% | 0.384 µM
6 | COC(=O)c1cn(C)c2cc(N3CCC(N(C)Cc4c(-c5c(Cl)cccc5Cl)noc4C4CC4)CC3)ccc12 [Example I59, methyl 6-(4-(((5-cyclopropyl-3-(2,6-dichlorophenyl)isoxazol-4-yl)methyl)(methyl)amino)piperidin-1-yl)-1-methyl-1H-indole-3-carboxylate] |  | > 10 µM
7 | O=C(O)c1cc(F)c2nc(N3CC4CC(C3)C4OCc3c(-c4ccccc4OC(F)(F)F)noc3C3CC3)sc2c1 (stereo not drawn) [Example I60, 2-(6-((5-cyclopropyl-3-(2-(trifluoromethoxy)phenyl)isoxazol-4-yl)methoxy)-3-azabicyclo[3.1.1]heptan-3-yl)-4-fluorobenzo[d]thiazole-6-carboxylic Acid] | 35.3% | 0.732 µM
8 | Cn1cc(C(=O)O)c2ccc(N3CC4CC(C3)C4OCc3c(-c4c(Cl)cccc4Cl)noc3C3CC3)cc21 (stereo not drawn) [Example I61, 6-(6-((5-cyclopropyl-3-(2,6-dichlorophenyl)isoxazol-4-yl)methoxy)-3-azabicyclo[3.1.1]heptan-3-yl)-1-methyl-1H-indole-3-carboxylic Acid] | 67.7% | 0.616 µM
9 | Cn1cc(C(=O)O)c2c(F)cc(N3CC4CC(C3)C4OCc3c(-c4c(Cl)cccc4Cl)noc3C3CC3)cc21 (stereo not drawn) [Example I63, 6-(6-((5-cyclopropyl-3-(2,6-dichlorophenyl)isoxazol-4-yl)methoxy)-3-azabicyclo[3.1.1]heptan-3-yl)-4-fluoro-1-methyl-1H-indole-3-carboxylic Acid] | 106% | 0.102 µM
10 | O=C(O)c1ccc2nc(N3CC4CC(C3)C4OCc3c(-c4c(Cl)cccc4Cl)noc3C3CC3)sc2c1 (stereo not drawn) [Example I65, 2-(6-((5-cyclopropyl-3-(2,6-dichlorophenyl)isoxazol-4-yl)methoxy)-3-azabicyclo[3.1.1]heptan-3-yl)benzo[d]thiazole-6-carboxylic Acid] |  | > 10 µM
11 | O=C(O)c1ccc2nc(N3CC4CC(C3)C4OCc3c(-c4ccccc4OC(F)(F)F)noc3C3CC3)sc2c1 (stereo not drawn) [Example I66, 2-(6-((5-cyclopropyl-3-(2-(trifluoromethoxy)phenyl)isoxazol-4-yl)methoxy)-3-azabicyclo[3.1.1]heptan-3-yl)benzo[d]thiazole-6-carboxylic Acid] |  | > 10 µM
